Data reported in article PMC2813863, “In Vivo Evaluation of α7 Nicotinic Acetylcholine Receptor Agonists [^11C]A-582941 and [^11C]A-844606 in Mice and Conscious Monkeys” (PLoS ONE, 2010).
“And” between values parts separate entries of the source, which are not always exact repeats. Equal entries are not always repeated. Where two headings read alike, the source gives them in different places.

Experiments:
[1] = target: α7 nAChRs (Mus musculus, UniProt P49582); settings: in vivo
Description: In the other group of mice, a blocking experiment to determine the α7 nAChRs-specific regional brain uptake of the tracers was carried out. Each tracer (2 MBq/0.055–0.096 nmol) was co-injected with each of the following blockers into mice, and 15 ([^11C]A-582941) or 30 ([^11C]A-844606) min later the mice were killed (n = 5) and the tissue uptake of ^11C was expressed as the %ID/g. […] Each blocker was dissolved in 1N HCl to 40 mg/ml and diluted up to 0.4 mg/ml with saline. The co-injected dose was 1 mg/kg. In the control mice the same amount of 0.01 N HCl in saline was co-injected.

[2] = tested on: α4β2; settings: cited from earlier work
[3] = format: in vivo, mice; settings: mouse, in vivo, iv
Description: Each tracer was intravenously injected into mice, and then the animals were killed by cervical dislocation at 1, 5, 15, 30 and 60 min after injection (n = 4). The body weight of the mice was 34.7±1.2 g. The injected doses of tracers were 2 MBq/0.049–0.051 nmol. Blood was collected by heart puncture and tissues were harvested. The carbon-11 in the samples was counted with an auto-gamma-counter (LKB Wallac Compu-gamma 1282CS, Turku, Finland) and the tissues were weighed. The tissue uptake of carbon-11 was expressed as the %ID/g.

[4] = target: α7 nAChRs (Macaca mulatta, UniProt Q866A2); settings: rhesus monkey, in vivo
Sequence of α7 nAChRs (Macaca mulatta, UniProt Q866A2) (Q866A2 23-502): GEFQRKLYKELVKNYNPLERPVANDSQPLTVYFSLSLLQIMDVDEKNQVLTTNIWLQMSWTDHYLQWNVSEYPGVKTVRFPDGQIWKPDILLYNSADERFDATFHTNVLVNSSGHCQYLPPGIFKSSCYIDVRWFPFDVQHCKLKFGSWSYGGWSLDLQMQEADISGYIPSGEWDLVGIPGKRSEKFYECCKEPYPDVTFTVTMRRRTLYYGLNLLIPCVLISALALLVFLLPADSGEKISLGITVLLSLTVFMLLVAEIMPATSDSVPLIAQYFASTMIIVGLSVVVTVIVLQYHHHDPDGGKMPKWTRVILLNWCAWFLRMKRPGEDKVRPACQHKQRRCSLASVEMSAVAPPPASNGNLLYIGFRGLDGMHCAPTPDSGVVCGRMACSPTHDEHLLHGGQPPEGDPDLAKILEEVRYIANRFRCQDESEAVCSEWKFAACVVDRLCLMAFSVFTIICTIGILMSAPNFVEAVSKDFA
Description: Four young-adult male rhesus monkeys (Macaca mulatta) weighing from 4 to 6 kg were used for PET measurements. The monkeys were trained for the protocol as described previously. The magnetic resonance images (MRI) of all monkeys were obtained with a Toshiba MRT-50A/II (0.5T) under anesthesia with pentobarbital. The stereotactic coordinates of PET and MRI were adjusted based on the orbitomeatal (OM) line with monkeys secured in a specially designed head holder. At least 1 month before the PET study, an acrylic plate, with which the monkey was fixed to the monkey chair, was attached to the head under pentobarbital anesthesia as described previously.
PET data were collected on a high-resolution PET scanner (SHR-7700; Hamamatsu Photonics K.K., Hamamatsu, Japan). The camera consists of 16 detector rings and acquires 20 slices at a center-to-center interval of 3.6 mm with a transaxial resolution of 2.6 mm full width at half maximum. After an overnight fast, the monkey was fixed to the monkey chair with stereotactic coordinates aligned parallel to the OM line. A cannula was implanted in the posterior tibial vein, and [^11C]A-582941 or [^11C]A-844606 (1152–1336 MBq/26.8–63.1 nmol) was injected into the monkey through the venous cannula. PET images were acquired over 91 min (10 sec ×6 frames, 30 sec ×6 frames, 1 min ×12 frames, and 3 min ×25 frames). PET scans were reconstructed using a filtered backprojection method in a 100×100 matrix, with a voxel size of 1.2 mm ×1.2 mm ×3.6 mm. Summed image of late phase (from 70 to 91 min post-injection) was calculated as a static SUV (activity/ml tissue)/(injected activity/g body weight) image. Each MRI was coregistered to an early (from 0 to 20 min) summed image using normalized mutual information, and ROIs were placed on the summed image with reference to the coregistered MRI. Three monkeys underwent [^11C]A-582941 scan morning, and then two of the three monkeys underwent [^11C]A-844606 afternoon (baseline). Within 6 months the last one of the three monkeys underwent two [^11C]A-844606 scans in the baseline (morning) and blocking (afternoon) conditions 30 min after injection of SSR180711 (5.0 mg/kg, i.v.), and the fourth monkey underwent two [^11C]A-582941 scans in the baseline and blocking conditions in the same way.
For the semi-quantitative analysis of PET data, arterial samples were obtained every 8 sec from injection to 64 sec, and then again at 1.5, 2.5, 4, 6, 10, 20, 30, 45, 60, and 90 min after each tracer injection. Blood samples were centrifuged to separate the plasma, weighed, and subjected to radioactivity measurement. For metabolite analysis, methanol was added to some plasma samples, the resulting solutions were centrifuged, and the supernatants were developed with TLC plates (AL SIL G/UV; Whatman, Kent, UK) using a mobile phase of dichloromethane/diethyl ether/ethanol/triethylamine (20/20/2/2, v/v/v/v). At each sampling time point, the ratio of radioactivity in the unmetabolized fraction to that in the total plasma (metabolite plus unmetabolite) was determined using a phosphoimaging plate (BAS-1500 MAC; Fuji Film Co., Tokyo, Japan). The pTACs corrected for metabolite were obtained. The tTACs in each region of interest (ROI) in the brain were calculated as the %ID/ml or as a standardized uptake value (SUV), (activity/ml tissue)/(injected activity/g body weight). Using the tTACs and the metabolite-corrected pTAC, the V T for each tracer was evaluated by Logan graphical analysis.

[5] = target: α4β2; settings: read-out: K i α4β2; cited from earlier work

Sequence of α7 nAChRs (Mus musculus, UniProt P49582) (P49582 23-502): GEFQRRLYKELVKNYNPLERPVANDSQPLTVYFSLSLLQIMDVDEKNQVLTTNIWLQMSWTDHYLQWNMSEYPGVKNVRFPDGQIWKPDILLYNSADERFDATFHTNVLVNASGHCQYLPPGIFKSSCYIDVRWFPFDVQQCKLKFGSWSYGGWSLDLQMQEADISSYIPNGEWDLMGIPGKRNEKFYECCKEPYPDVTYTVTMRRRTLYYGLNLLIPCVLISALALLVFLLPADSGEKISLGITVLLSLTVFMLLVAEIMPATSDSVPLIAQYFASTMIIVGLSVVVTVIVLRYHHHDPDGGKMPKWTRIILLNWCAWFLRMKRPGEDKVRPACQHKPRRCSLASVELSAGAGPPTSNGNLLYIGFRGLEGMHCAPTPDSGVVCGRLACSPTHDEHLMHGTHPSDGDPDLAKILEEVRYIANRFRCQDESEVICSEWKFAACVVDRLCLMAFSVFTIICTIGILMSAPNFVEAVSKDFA

Structure (SMILES): O=C(Oc1ccc(Br)cc1)N1CCN2CCC1CC2 [SSR180711]
- % Injected dose/g tissue, Cerebellum [1]: 3.32±0.25 % Injected dose/g tissue and 5.10±0.69 % Injected dose/g tissue
- % Injected dose/g tissue, Cerebral cortex [1]: 5.02±0.46 % Injected dose/g tissue and 8.43±1.07 % Injected dose/g tissue
- % Injected dose/g tissue, Hippocampus [1]: 4.63±0.51 % Injected dose/g tissue and 6.26±0.64 % Injected dose/g tissue
- % Injected dose/g tissue, Hypothalamus [1]: 3.49±0.36 % Injected dose/g tissue and 4.74±0.70 % Injected dose/g tissue
- % Injected dose/g tissue, Medulla oblongata [1]: 3.15±0.14 % Injected dose/g tissue and 5.35±0.33 % Injected dose/g tissue
- % Injected dose/g tissue, Midbrain [1]: 3.91±0.45 % Injected dose/g tissue and 6.69±0.79 % Injected dose/g tissue
- % Injected dose/g tissue, Striatum [1]: 4.19±1.04 % Injected dose/g tissue and 7.32±1.84 % Injected dose/g tissue
- % Injected dose/g tissue, Whole brain [1]: 4.21±0.39 % Injected dose/g tissue and 6.82±0.64 % Injected dose/g tissue
- IC50 ([2]; human receptor): > 50000 nM

Structure (SMILES): [11CH3]N1CC2CN(c3ccc4oc5ccccc5c(=O)c4c3)CC2C1 (centres unmarked) [[^11C]A-844606, 2-(5-[^11C]Methyl-hexahydro-pyrrolo[3,4-c]pyrrol-2-yl)-xanthene-9-one]
- % Injected dose/g tissue, Blood [1]: 0.57±0.11 % Injected dose/g tissue
- % Injected dose/g tissue, Cerebellum [1]: 4.54±0.63 % Injected dose/g tissue
- % Injected dose/g tissue, Cerebral cortex [1]: 7.63±0.98 % Injected dose/g tissue
- % Injected dose/g tissue, Hippocampus [1]: 4.46±0.90 % Injected dose/g tissue
- % Injected dose/g tissue, Hypothalamus [1]: 4.21±1.55 % Injected dose/g tissue
- % Injected dose/g tissue, Medulla oblongata [1]: 5.25±0.95 % Injected dose/g tissue
- % Injected dose/g tissue, Midbrain [1]: 5.43±0.75 % Injected dose/g tissue
- % Injected dose/g tissue, Striatum [1]: 5.01±2.00 % Injected dose/g tissue
- % Injected dose/g tissue, Whole brain [1]: 5.83±0.56 % Injected dose/g tissue
- time of peak radioactivity in the brain [3]: 30 min
- V T Baseline, Cerebellum ([4]; male): 95.9 mL/g
- V T Baseline, Frontal cortex ([4]; male): 132.2 mL/g
- V T Baseline, Hippocampus ([4]; male): 123.1 mL/g
- V T Baseline, Thalamus ([4]; male): 141.5 mL/g
- V T SSR180711, Cerebellum ([4]; male): 52.8 mL/g
- V T SSR180711, Frontal cortex ([4]; male): 65.3 mL/g
- V T SSR180711, Hippocampus ([4]; male): 57.5 mL/g
- V T SSR180711, Thalamus ([4]; male): 69.3 mL/g
- V T, cerebellum (mean ± SD) ([4]; male): 95.2±32.8
- V T, cerebellum (range) ([4]; male): 62.1–127.7
- V T, frontal cortex (mean ± SD) ([4]; male): 130.9±40.4
- V T, frontal cortex (range) ([4]; male): 89.8–170.6
- V T, hippocampus (mean ± SD) ([4]; male): 118.5±33.6
- V T, hippocampus (range) ([4]; male): 82.9–149.6
- V T, thalamus (mean ± SD) ([4]; male): 138.6±42.3
- V T, thalamus (range) ([4]; male): 95.0–179.4
- time at which brain radioactivity reached a plateau ([4]; male): 40 to 60 min
- time at which radioactivity in the cerebellum reached a plateau ([4]; male): 40 min
- % decrease of V T, Cerebellum [4]: 45.0%
- % decrease of V T, Frontal cortex [4]: 50.6%
- % decrease of V T, Hippocampus [4]: 53.3%
- % decrease of V T, Thalamus [4]: 51.0%
- decrease of V T by pretreatment with SSR180711 [4]: ~50%

Structure (SMILES): c1cncc(OC[C@@H]2CCN2)c1 [A-85380, 3-(2(S)-azetidynilmethoxy)pyridine]
- % Injected dose/g tissue, Blood [1]: 0.85±0.06 % Injected dose/g tissue and 0.54±0.12 % Injected dose/g tissue
- % Injected dose/g tissue, Cerebellum [1]: 3.76±0.50 % Injected dose/g tissue and 6.22±1.26 % Injected dose/g tissue
- % Injected dose/g tissue, Cerebral cortex [1]: 4.53±0.61 % Injected dose/g tissue and 7.57±1.48 % Injected dose/g tissue
- % Injected dose/g tissue, Hippocampus [1]: 3.92±0.54 % Injected dose/g tissue and 5.58±1.26 % Injected dose/g tissue
- % Injected dose/g tissue, Hypothalamus [1]: 3.97±0.65 % Injected dose/g tissue and 5.00±0.96 % Injected dose/g tissue
- % Injected dose/g tissue, Medulla oblongata [1]: 3.99±0.49 % Injected dose/g tissue and 5.46±1.15 % Injected dose/g tissue
- % Injected dose/g tissue, Midbrain [1]: 4.52±0.68 % Injected dose/g tissue and 6.84±1.71 % Injected dose/g tissue
- % Injected dose/g tissue, Striatum [1]: 4.33±0.75 % Injected dose/g tissue and 6.47±1.38 % Injected dose/g tissue
- % Injected dose/g tissue, Whole brain [1]: 4.26±0.57 % Injected dose/g tissue and 6.64±1.33 % Injected dose/g tissue
- Ki ([2]; read-out: K i α4β2): 0.04 nM
- Ki [5]: 0.05 nM
